Data taken from patent US20040087798A1, “Novel amide compounds” (priority 2000, published 2004).

Tested on: not given
Experiment: not given
Conditions: not given

Row | SMILES | melting point
1 | O=C(C/C=C/c1ccccc1)Nc1cccc(-n2ccnc2)c1 [Compound (a), (3E)-N-[3-(imidazol-1-yl)phenyl]-4-phenyl-3-butenamide] | 130 to 133 °C
2 | Cc1ccc(NC(=N)c2ccccc2)cc1NC(=O)/C=C/c1ccccc1C(F)(F)F [Example 139, (2E)-N-[5 (iminobenzylamino)-2-methylphenyl]-3-(2-trifluoromethylphenyl)-2-propenamide] | 220 to 222 °C
3 | COc1ccc(NC(=N)c2ccccc2)cc1NC(=O)/C=C/c1ccccc1C(F)(F)F [Example 140, (2E)-N-[5-(iminobenzylamino)-2-methoxyphenyl]-3-(2-trifluoromethylphenyl)-2-propenamide] | 208 to 210 °C
4 | N=C(Nc1ccc(Cl)c(NC(=O)/C=C/c2ccccc2C(F)(F)F)c1)c1ccccc1 [Example 141, (2E)-N-[2-chloro-5-(iminobenzylamino)phenyl]-3-(2-trifluoromethylphenyl)-2-propenamide] | 198 to 199 °C
5 | N=C(Nc1cc(Cl)cc(NC(=O)/C=C/c2ccccc2Br)c1)c1ccccc1 [Example 142, (2E)-N-[3-chloro-5-(iminobenzylamino)phenyl]-3-(2-bromophenyl)-2-propenamide] | 99 to 101 °C
6 | Cc1ccc(NC(=O)/C=C/c2ccccc2C(F)(F)F)cc1NC(=N)c1ccccc1 [Example 143, (2E)-N-[3-(iminobenzylamino)-4-methylphenyl]-3-(2-trifluoromethylphenyl)-2-propenamide] | 112 to 116 °C
7 | COc1ccc(NC(=O)/C=C/c2ccccc2C(F)(F)F)cc1NC(=N)c1ccccc1 [Example 144, (2E)-N-[3-(iminobenzylamino)-4-methoxyphenyl]-3-(2-trifluoromethylphenyl)-2-propenamide] | 213 to 214 °C
8 | N=C(Nc1cc(NC(=O)/C=C/c2ccccc2C(F)(F)F)ccc1Cl)c1ccccc1 [Example 145, (2E)-N-[4-chloro-3-(iminobenzylamino)phenyl]-3-(2-trifluoromethylphenyl)-2-propenamide] | 188 to 189 °C
9 | CS(=O)(=O)Nc1cc(NC(=N)c2ccccc2)cc(NC(=O)/C=C/c2ccccc2C(F)(F)F)c1 [Example 146, (2E)-N-[3 (iminobenzylamino)-5-(methylsulfonylamino)phenyl]-3-(2-trifluoromethylphenyl)-2-propenamide] | 150 to 155 °C
10 | CS(=O)(=O)Nc1ccc(C(=N)Nc2cc(Cl)cc(NC(=O)/C=C/c3ccccc3Cl)c2)cc1 [Example 147, (2E)-N-[3-chloro-5-[imino(4-methylsulfonylaminobenzyl)amino]phenyl]-3-(2-chlorophenyl)-2-propenamide] | 158 to 160 °C
11 | N=C(Nc1cc(Cl)cc(NC(=O)/C=C/c2ccccc2C(F)(F)F)c1)c1ccccc1F [Example 148, (2E)-N-[3-chloro-5-[imino(2-fluorobenzyl)amino]phenyl]-3-(2-trifluoromethylphenyl)-2-propenamide] | 209 to 210 °C
12 | CC(=O)Nc1ccc(C(=N)Nc2cc(NC(=O)/C=C/c3ccccc3C(F)(F)F)c(F)cc2F)cc1 [Example 152, (2E)-N-[2,4-difluoro-5-[imino(4-acetylaminobenzyl)amino]phenyl]-3-(2-trifluoromethylphenyl)-2-propenamide] | 180 to 185 °C
13 | N=C(Nc1cc(Cl)c(Cl)c(NC(=O)/C=C/c2ccccc2C(F)(F)F)c1)c1ccccc1 [Example 154, (2E)-N-[2,3-dichloro-5-(iminobenzylamino)phenyl]-3-(2-trifluoromethylphenyl)-2-propenamide] | 213 to 214 °C
14 | O=C(C=Cc1ccccc1Cl)Nc1cc(Cl)cc(Nc2noc3ccccc23)c1 [Example 186, N-[3-(1,2-benzisoxazol-3-ylamino)-5-chlorophenyl]-2-chlorocinnamamide] | 133 to 135 °C
15 | N=C(Nc1cc(Cl)cc(NC(=O)/C=C/c2c[nH]c3ccccc23)c1)c1ccccc1 [Example 205, (2E)-N-[3-chloro-5-[[imino(phenyl)methyl]amino]phenyl]-3-(1H-indole-3-yl)-2-propenamide] | 184 to 187 °C

Target: T1, 5-HT2c binding site (Rattus norvegicus, UniProt P08909)
T1 construct: ability to displace [^3H]-mesulergine in the rat prefrontal cortex; from tissue; host or cells: rat prefrontal cortex membrane suspension
T1 sequence (P08909 33-460): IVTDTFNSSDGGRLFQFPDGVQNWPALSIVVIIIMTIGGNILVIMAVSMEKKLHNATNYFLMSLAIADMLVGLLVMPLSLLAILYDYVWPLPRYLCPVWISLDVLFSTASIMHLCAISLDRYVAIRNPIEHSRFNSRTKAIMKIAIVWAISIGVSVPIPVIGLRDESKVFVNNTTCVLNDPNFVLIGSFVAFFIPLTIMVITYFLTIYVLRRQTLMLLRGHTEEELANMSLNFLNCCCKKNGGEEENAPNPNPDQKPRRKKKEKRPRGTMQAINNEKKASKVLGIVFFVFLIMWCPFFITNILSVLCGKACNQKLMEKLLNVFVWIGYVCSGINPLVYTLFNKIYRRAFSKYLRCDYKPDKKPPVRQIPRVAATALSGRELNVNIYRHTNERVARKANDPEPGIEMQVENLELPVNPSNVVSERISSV
Experiment: [3H]-mesulergine binding
Conditions: test drug 10^−6M; displacement of [3H]-mesulergine (1 nM) in rat prefrontal cortex membranes; 30 nM spiperone present
Protocol: [^3H]-mesulergine Binding
The affinity of test drugs for the 5-HT2c binding site can be determined by assessing their ability to displace [^3H]-mesulergine in the rat prefrontal cortex. The method employed was similar to that of Pazos et al, 1984.
The membrane suspension (500 μl) was incubated with [^3H]-mesulergine (1 nM) in Tris hydrochloric acid buffer solution (pH 7.4) containing calcium chloride 4 mM and ascorbic acid 0.1% at 37° C. for 30 minutes. Non-specific binding was measured in the presence of mianserin (1 μM). 30 nM spiperone was used to prevent binding to 5-HT2A sites. Test drugs (10^−6M) were added in a volume of 100 μl. The total assay volume was 1000 μl. Incubation was stopped by rapid filtration using a Brandel cell harvester and radioactivity measured by scintillation counting.

Row | SMILES | inhibition at 1 µM
16 | O=C(C/C=C/c1ccccc1)Nc1cccc(-n2ccnc2)c1 [Compound (a), (3E)-N-[3-(imidazol-1-yl)phenyl]-4-phenyl-3-butenamide] | 82%
